# Laboratory results published in patent US12459922B2 (Gilead Sciences, Inc., priority 2022, dated 2025).
# Test system: endogenous cellular STAT1 (phosphorylated at Tyr701) in NCI-H1373 cells
# Assay: Phospho-STAT1 (Tyr701) LANCE Ultra TR-FRET Detection Assay
# Assay type: cell-based
# Conditions: Homo sapiens, NCI-H1373, 48 h, phospho-STAT1 (Tyr701) induction, read-out: NH1373 pSTAT1 EC50
row,SMILES,EC50 [nM]
1,"Nc1nc(-c2cc3ncn(CCC[C@H](COC(F)F)Nc4cn[nH]c(=O)c4C(F)(F)F)c(=O)c3cc2F)cnc1C(F)(F)F [Example 419, (R)-7-(6-amino-5-(trifluoromethyl)pyrazin-2-yl)-3-(5-(difluoromethoxy)-4-((6-oxo-5-(trifluoromethyl)-1,6-dihydropyridazin-4-yl)amino)pentyl)-6-fluoroquinazolin-4(3H)-one]",14.2
2,"O=c1[nH]ncc(N[C@H](CCCn2cnc3cc(-c4cnc(C(F)(F)F)cn4)c(F)cc3c2=O)COC(F)F)c1C(F)(F)F [Example 420, (R)-3-(5-(difluoromethoxy)-4-((6-oxo-5-(trifluoromethyl)-1,6-dihydropyridazin-4-yl)amino)pentyl)-6-fluoro-7-(5-(trifluoromethyl)pyrazin-2-yl)quinazolin-4(3H)-one]",9.41
3,"Nc1nc(-c2cc3ccn(CCC[C@H](COC(F)F)Nc4cn[nH]c(=O)c4C(F)(F)F)c(=O)c3cc2F)n[nH]1 [Example 421, (R)-6-(5-amino-1H-1,2,4-triazol-3-yl)-2-(5-(difluoromethoxy)-4-((6-oxo-5-(trifluoromethyl)-1,6-dihydropyridazin-4-yl)amino)pentyl)-7-fluoroisoquinolin-1(2H)-one]",110
4,"O=c1[nH]ncc(N[C@H](CCCn2ccc3cc(-c4cnc(N5CCOCC5)cn4)c(F)cc3c2=O)COC(F)F)c1C(F)(F)F [Example 422, (R)-2-(5-(difluoromethoxy)-4-((6-oxo-5-(trifluoromethyl)-1,6-dihydropyridazin-4-yl)amino)pentyl)-7-fluoro-6-(5-morpholinopyrazin-2-yl)isoquinolin-1(2H)-one]",87.9
5,"O=c1[nH]ncc(N[C@H](CCCn2ccc3cc(-c4cnc(N5CCNCC5)cn4)c(F)cc3c2=O)COC(F)F)c1C(F)(F)F [Example 423, (R)-2-(5-(difluoromethoxy)-4-((6-oxo-5-(trifluoromethyl)-1,6-dihydropyridazin-4-yl)amino)pentyl)-7-fluoro-6-(5-(piperazin-1-yl)pyrazin-2-yl)isoquinolin-1(2H)-one]",446
6,"O=c1[nH]ncc(N[C@H](CCCn2ccc3cc(-c4cnc(C(F)F)cn4)c(F)cc3c2=O)COC(F)F)c1C(F)(F)F [Example 424, (R)-2-(5-(difluoromethoxy)-4-((6-oxo-5-(trifluoromethyl)-1,6-dihydropyridazin-4-yl)amino)pentyl)-6-(5-(difluoromethyl)pyrazin-2-yl)-7-fluoroisoquinolin-1(2H)-one]",3.11
7,"O=c1[nH]ncc(N[C@H](CCCn2cnc3cc(-c4ccc5c(n4)NCCO5)c(F)cc3c2=O)COC(F)F)c1C(F)(F)F [Example 425, (R)-3-(5-(difluoromethoxy)-4-((6-oxo-5-(trifluoromethyl)-1,6-dihydropyridazin-4-yl)amino)pentyl)-7-(3,4-dihydro-2H-pyrido[3,2-b][1,4]oxazin-6-yl)-6-fluoroquinazolin-4(3H)-one]",9.83
8,"Nc1nc(-c2cc3ncn(CCC[C@H](COC(F)F)Nc4cn[nH]c(=O)c4C(F)(F)F)c(=O)c3cc2F)ncc1Cl [Example 426, (R)-7-(4-amino-5-chloropyrimidin-2-yl)-3-(5-(difluoromethoxy)-4-((6-oxo-5-(trifluoromethyl)-1,6-dihydropyridazin-4-yl)amino)pentyl)-6-fluoroquinazolin-4(3H)-one]",14.2
9,"[2H]C([2H])([2H])OC[C@@H](CCCn1ccc2cc(-c3ncc(C(F)(F)F)c(N)n3)c(F)cc2c1=O)Nc1cn[nH]c(=O)c1C(F)(F)F [Example 427, 6-[4-amino-5-(trifluoromethyl)pyrimidin-2-yl]-7-fluoro-2-[(4R)-4-[[6-oxo-5-(trifluoromethyl)-1H-pyridazin-4-yl]amino]-5-(trideuteriomethoxy)pentyl]isoquinolin-1-one]",2.87
10,"[2H]C([2H])([2H])OC[C@@H](CCCn1ccc2cc(-c3ncc(C(F)F)cn3)c(F)cc2c1=O)Nc1cn[nH]c(=O)c1C(F)(F)F [Example 428, 6-[5-(difluoromethyl)pyrimidin-2-yl]-7-fluoro-2-[(4R)-4-[[6-oxo-5-(trifluoromethyl)-1H-pyridazin-4-yl]amino]-5-(trideuteriomethoxy)pentyl]isoquinolin-1-one]",4.17
11,"[2H]C([2H])([2H])OC[C@@H](CCCn1ccc2cc(-c3ncc(C(F)F)c(N)n3)c(F)cc2c1=O)Nc1cn[nH]c(=O)c1C(F)(F)F [Example 429, 6-[4-amino-5-(difluoromethyl)pyrimidin-2-yl]-7-fluoro-2-[(4R)-4-[[6-oxo-5-(trifluoromethyl)-1H-pyridazin-4-yl]amino]-5-(trideuteriomethoxy)pentyl]isoquinolin-1-one]",7.21
12,"[2H]C([2H])([2H])OC[C@@H](CCCn1cnc2cc(-c3ncc(C(F)(F)F)cn3)c(F)cc2c1=O)Nc1cn[nH]c(=O)c1C(F)(F)F [Example 430, 6-fluoro-3-[(4R)-4-[[6-oxo-5-(trifluoromethyl)-1H-pyridazin-4-yl]amino]-5-(trideuteriomethoxy)pentyl]-7-[5-(trifluoromethyl)pyrimidin-2-yl]quinazolin-4-one]",2.63

# The next lines start with the values.
row,EC50 [nM],SMILES
1,6.42,[2H]C([2H])([2H])OC[C@@H](CCCn1cnc2cc(-c3ncc(C(F)F)cn3)c(F)cc2c1=O)Nc1cn[nH]c(=O)c1C(F)(F)F [Example 431]
2,12.7,[2H]C([2H])([2H])OC[C@@H](CCCn1cnc2cc(-c3ncc(C(F)(F)F)c(N)n3)c(F)cc2c1=O)Nc1cn[nH]c(=O)c1C(F)(F)F [Example 432]
3,15.6,[2H]C([2H])([2H])OC[C@@H](CCCn1cnc2cc(-c3ncc(C(F)F)c(N)n3)c(F)cc2c1=O)Nc1cn[nH]c(=O)c1C(F)(F)F [Example 433]
4,13,[2H]C([2H])([2H])OC[C@@H](CCCn1ccc2cc(-c3ccc(C(F)(F)F)cn3)c(F)cc2c1=O)Nc1cn[nH]c(=O)c1C(F)(F)F [Example 434]
5,2.83,"O=c1[nH]ncc(N[C@H](CCCn2ccc3cc(-c4ncc(C(F)(F)F)cn4)c(F)cc3c2=O)COC(F)(F)F)c1C(F)(F)F [Example 435, (R)-7-fluoro-2-(4-((6-oxo-5-(trifluoromethyl)-1,6-dihydropyridazin-4-yl)amino)-5-(trifluoromethoxy)pentyl)-6-(5-(trifluoromethyl)pyrimidin-2-yl)isoquinolin-1(2H)-one]"
6,23.1,"Nc1nc(-c2cc3ccn(Cc4cccc(Nc5cn[nH]c(=O)c5C(F)(F)F)c4)c(=O)c3cc2F)ncc1C(F)(F)F [Example 438, 6-(4-amino-5-(trifluoromethyl)pyrimidin-2-yl)-7-fluoro-2-(3-((6-oxo-5-(trifluoromethyl)-1,6-dihydropyridazin-4-yl)amino)benzyl)isoquinolin-1(2H)-one]"
7,534,"O=c1[nH]ncc(N[C@H](CCCn2ccc3cc(-c4nc5n(n4)CCNC5)c(F)cc3c2=O)COC(F)F)c1C(F)(F)F [Example 439, (R)-2-(5-(difluoromethoxy)-4-((6-oxo-5-(trifluoromethyl)-1,6-dihydropyridazin-4-yl)amino)pentyl)-7-fluoro-6-(5,6,7,8-tetrahydro-[1,2,4]triazolo[1,5-a]pyrazin-2-yl)isoquinolin-1(2H)-one]"
8,1750,"O=c1[nH]ncc(N[C@H]2CCN[C@@H]2CCn2ccc3cc(-c4ncc(C(F)(F)F)cn4)c(F)cc3c2=O)c1C(F)(F)F [Example 440, 7-fluoro-2-(2-((2R,3S)-3-((6-oxo-5-(trifluoromethyl)-1,6-dihydropyridazin-4-yl)amino)pyrrolidin-2-yl)ethyl)-6-(5-(trifluoromethyl)pyrimidin-2-yl)isoquinolin-1(2H)-one]"
9,1850,"C[C@H](Nc1cn[nH]c(=O)c1C(F)(F)F)[C@@H](O)CCn1ccc2cc(-c3ncc(C(F)(F)F)cn3)c(F)cc2c1=O [Example 442, 7-fluoro-2-((3S,4S)-3-hydroxy-4-((6-oxo-5-(trifluoromethyl)-1,6-dihydropyridazin-4-yl)amino)pentyl)-6-(5-(trifluoromethyl)pyrimidin-2-yl)isoquinolin-1(2H)-one]"
10,273,"O=c1[nH]ncc(N[C@H]2CC[C@@H](Cn3ccc4cc(-c5ncc(C(F)(F)F)cn5)c(F)cc4c3=O)C2)c1C(F)(F)F [Example 443, 7-fluoro-2-(((1R,3S)-3-((6-oxo-5-(trifluoromethyl)-1,6-dihydropyridazin-4-yl)amino)cyclopentyl)methyl)-6-(5-(trifluoromethyl)pyrimidin-2-yl)isoquinolin-1(2H)-one]"
11,25.1,"Nc1nc(-c2cc3ccn(C[C@@H]4CC[C@H](Nc5cn[nH]c(=O)c5C(F)(F)F)C4)c(=O)c3cc2F)ncc1C(F)(F)F [Example 444, 6-(4-amino-5-(trifluoromethyl)pyrimidin-2-yl)-7-fluoro-2-(((1R,3S)-3-((6-oxo-5-(trifluoromethyl)-1,6-dihydropyridazin-4-yl)amino)cyclopentyl)methyl)isoquinolin-1(2H)-one]"
12,18.5,"C[C@H](Nc1cn[nH]c(=O)c1C(F)(F)F)[C@H](O)CCn1ccc2cc(-c3ncc(C(F)(F)F)cn3)c(F)cc2c1=O [Example 445, 7-fluoro-2-((3R,4S)-3-hydroxy-4-((6-oxo-5-(trifluoromethyl)-1,6-dihydropyridazin-4-yl)amino)pentyl)-6-(5-(trifluoromethyl)pyrimidin-2-yl)isoquinolin-1(2H)-one]"
13,270,"O=c1[nH]ncc(N[C@@H]2CC[C@H](Cn3ccc4cc(-c5ncc(C(F)(F)F)cn5)c(F)cc4c3=O)C2)c1C(F)(F)F [Example 446, 7-fluoro-2-(((1S,3R)-3-((6-oxo-5-(trifluoromethyl)-1,6-dihydropyridazin-4-yl)amino)cyclopentyl)methyl)-6-(5-(trifluoromethyl)pyrimidin-2-yl)isoquinolin-1(2H)-one]"
14,25.6,"Nc1nc(-c2cc3ccn(C[C@H]4CC[C@@H](Nc5cn[nH]c(=O)c5C(F)(F)F)C4)c(=O)c3cc2F)ncc1C(F)(F)F [Example 447, 6-(4-amino-5-(trifluoromethyl)pyrimidin-2-yl)-7-fluoro-2-(((1S,3R)-3-((6-oxo-5-(trifluoromethyl)-1,6-dihydropyridazin-4-yl)amino)cvclopentyl)methyl)isoquinolin-1(2H)-one]"
